Like-named read-outs stand apart in the source and are kept apart here.
Tested on: non-replicating cultures of M. tuberculosis H37Rv transformed with lux ABCDE
Assay: microbe, parasite or virus in culture
Format: cell-based, Mycobacterium tuberculosis
Settings: for MIC / MIC90: ≥90% reduction in luminescence, read-out: MIC90 LORA; for MIC90 LORA/MABA: ratio of LORA MIC90 to MABA MIC90
[1] = Mycobacterium tuberculosis, H37RV

| SMILES | MIC90 LORA Rel to RMP | MIC [1] [µM] | MIC90 LORA/MABA | MIC90 [1] [µM] | MIC90 [µM] |
| --- | --- | --- | --- | --- | --- |
| CO[C@H]1/C=C/O[C@@]2(C)Oc3c(C)c(O)c4c(=O)c(c5oc6cc(N7CCN(CC(C)C)CC7)cc(OCc7ccc(CN8CCNCC8)cc7)c6nc-5c4c3C2=O)NC(=O)/C(C)=C\C=C\[C@H](C)[C@H](O)[C@@H](C)[C@@H](O)[C@@H](C)[C@H](OC(C)=O)[C@@H]1C [Compound 17b, (7S,9E,11S,12R,13S,14R,15R,16R,17S,18S,19E,21Z)-2,15,17-Trihydroxy-11-methoxy-3,7,12,14,16,18,22-heptamethyl-30-[4-(2-methylpropyl)piperazin-1-yl]-6,23,37-trioxo-32-({4-[(piperazin-1-yl)methyl]phenyl}methoxy)-8,27,38-trioxa-24,34-diazahexacyclo[23.11.1.1^4,7.0^5,36.0^26,35.0^28,33]octatriaconta-1(36)2,4,9,19,21,25,28,30,32,34-undecaen-13-yl acetate] | 1.3 | < 0.016 |  |  |  |
| CO[C@H]1/C=C/O[C@@]2(C)Oc3c(C)c(O)c4c(=O)c(c5oc6cc(N7CCN(CC(C)C)CC7)cc(OCCCCN7CCN(C(=O)Cn8ccnc8)CC7)c6nc-5c4c3C2=O)NC(=O)/C(C)=C\C=C\[C@H](C)[C@H](O)[C@@H](C)[C@@H](O)[C@@H](C)[C@H](OC(C)=O)[C@@H]1C [Compound 6d, (7S,9E,11S,12R,13S,14R,15R,16R,17S,18S,19E,21Z)-2,15,17-Trihydroxy-32-(4-{4-[2-(1H-imidazol-1-yl)acetyl]piperazin-1-yl}butoxy)-11-methoxy-3,7,12,14,16,18,22-heptamethyl-30-[4-(2-methylpropyl)piperazin-1-yl]-6,23,37-trioxo-8,27,38-trioxa-24,34-diazahexacyclo[23.11.1.1^4,7.0^5,36.0^26,35.0^28,33]octatriaconta-1(36)2,4,9,19,21,25,28,30,32,34-undecaen-13-yl acetate] | 0.06 | 0.058 | 2.4 |  |  |
| CO[C@H]1/C=C/O[C@@]2(C)Oc3c(C)c(O)c4c(=O)c(c5oc6cc(N7CCN(C(=O)c8cccc(-n9ccnc9)c8)CC7)cc(C)c6nc-5c4c3C2=O)NC(=O)/C(C)=C\C=C\[C@H](C)[C@H](O)[C@@H](C)[C@@H](O)[C@@H](C)[C@H](OC(C)=O)[C@@H]1C [Compound 29a, (7S,9E,11S,12R,13S,14R,15R,16R,17S,18S,19E,21Z)-2,15,17-Trihydroxy-30-{4-[3-(1H-imidazol-1-yl)benzoyl]piperazin-1-yl}-11-methoxy-3,7,12,14,16,18,22,32-octamethyl-6,23,37-trioxo-8,27,38-trioxa-24,34-diazahexacyclo[23.11.1.1^4,7.0^5,36.0^26,35.0^28,33]octatriaconta-1(36)2,4,9,19,21,25,28,30,32,34-undecaen-13-yl acetate] | 0.61 |  | 3.5 | 0.126 |  |
| CO[C@H]1/C=C/O[C@@]2(C)Oc3c(C)c(O)c4c(=O)c(c5oc6cc(N7CCN(CC(C)C)CC7)cc(OCCCCN7CCOCC7)c6nc-5c4c3C2=O)NC(=O)/C(C)=C\C=C\[C@H](C)[C@H](O)[C@@H](C)[C@@H](O)[C@@H](C)[C@H](OC(C)=O)[C@@H]1C [Compound 6a, (7S,9E,11S,12R,13S,14R,15R,16R,17S,18S,19E,21Z)-2,15,17-Trihydroxy-11-methoxy-3,7,12,14,16,18,22-heptamethyl-30-[4-(2-methylpropyl)piperazin-1-yl]-32-[4-(morpholin-4-yl)butoxy]-6,23,37-trioxo-8,27,38-trioxa-24,34-diazahexacyclo[23.11.1.1^4,7.0^5,36.0^26,35.0^28,33]octatriaconta-1(36)2,4,9,19,21,25,28(33)29,31,34-undecaen-13-yl acetate] | 0.07 | 0.186 | 2.0 |  |  |
| CO[C@H]1/C=C/O[C@@]2(C)Oc3c(C)c(O)c4c(=O)c(c5oc6cccc(OCc7cccc(CN8CCN(C(C)=O)CC8)c7)c6nc-5c4c3C2=O)NC(=O)/C(C)=C\C=C\[C@H](C)[C@H](O)[C@@H](C)[C@@H](O)[C@@H](C)[C@H](OC(C)=O)[C@@H]1C [Compound 11c, (7S,9E,11S,12R,13S,14R,15R,16R,17S,18S,19E,21Z)-32-({3-[(4-Acetylpiperazin-1-yl)methyl]phenyl}methoxy)-2,15,17-trihydroxy-11-methoxy-3,7,12,14,16,18,22-heptamethyl-6,23,37-trioxo-8,27,38-trioxa-24,34-diazahexacyclo-[23.11.1.1^4,7.0^5,36.0^26,35.0^28,33]octatriaconta-1(36)2,4,9,19,21,25,28,30,32,34-undecaen-13-yl acetate] | 0.53 |  | 2.1 | 0.123 |  |
| CO[C@H]1/C=C/O[C@@]2(C)Oc3c(C)c(O)c4c(=O)c(c5oc6cccc(OCc7ccc(CN8CCN(C(=O)Cn9ccnc9)CC8)cc7)c6nc-5c4c3C2=O)NC(=O)/C(C)=C\C=C\[C@H](C)[C@H](O)[C@@H](C)[C@@H](O)[C@@H](C)[C@H](OC(C)=O)[C@@H]1C [Compound 16b, (7S,9E,11S,12R,13S,14R,15R,16R,17S,18S,19E,21Z)-2,15,17-Trihydroxy-32-{[4-({4-[2-(1H-imidazol-1-yl)acetyl]piperazin-1-yl}methyl)phenyl]methoxy}-11-methoxy-3,7,12,14,16,18,22-heptamethyl-6,23,37-trioxo-8,27,38-trioxa-24,34-diazahexacyclo[23.11.1.1^4,7.0^5,36.0^26,35.0^28,33]octatriaconta-1(36)2,4,9,19,21,25,28,30,32,34-undecaen-13-yl acetate] | 0.93 | 0.057 | 2.0 |  |  |
| CO[C@H]1/C=C/O[C@@]2(C)Oc3c(C)c(O)c4c(=O)c(c5oc6cc(N7CCN(CCCO[C@@H]8COc9nc([N+](=O)[O-])cn9C8)CC7)cc(C)c6nc-5c4c3C2=O)NC(=O)/C(C)=C\C=C\[C@H](C)[C@H](O)[C@@H](C)[C@@H](O)[C@@H](C)[C@H](OC(C)=O)[C@@H]1C [Compound 29d, (7S,9E,11S,12R,13S,14R,15R,16R,17S,18S,19E,21Z)-2,15,17-Trihydroxy-11-methoxy-3,7,12,14,16,18,22,32-octamethyl-30-[4-(3-{[(6S)-2-nitro-5H,6H,7H-imidazo[2,1-b][1,3]oxazin-6-yl]oxy}propyl)piperazin-1-yl]-6,23,37-trioxo-8,27,38-trioxa-24,34-diazahexacyclo[23.11.1.1^4,7.0^5,36.0^26,35.0^28,33]octatriaconta-1(36)2,4,9,19,21,25,28,30,32,34-undecaen-13-yl acetate] | 0.20 |  | 1.4 | 0.053 |  |
| CO[C@H]1/C=C/O[C@@]2(C)Oc3c(C)c(O)c4c(=O)c(c5oc6cc(N7CCN(CC(C)C)CC7)cc(OCCCCN7CCN(CCn8ccnc8)CC7)c6nc-5c4c3C2=O)NC(=O)/C(C)=C\C=C\[C@H](C)[C@H](O)[C@@H](C)[C@@H](O)[C@@H](C)[C@H](OC(C)=O)[C@@H]1C [Compound 6b, (7S,9E,11S,12R,13S,14R,15R,16R,17S,18S,19E,21Z)-2,15,17-trihydroxy-32-(4-{4-[2-(1H-imidazol-1-yl)ethyl]piperazin-1-yl}butoxy)-11-methoxy-3,7,12,14,16,18,22-heptamethyl-30-[4-(2-methylpropyl)piperazin-1-yl]-6,23,37-trioxo-8,27,38-trioxa-24,34-diazahexacyclo[23.11.1.1^4,7.0^5,36.0^26,35.0^28,33]octatriaconta-1(36)2,4,9,19,21,25,28(33)29,31,34-undecaen-13-yl acetate] | 0.05 | 0.05 | 2.4 |  |  |
| CO[C@H]1/C=C/O[C@@]2(C)Oc3c(C)c(O)c4c(=O)c(c5oc6cc(C)cc(N7CCN(C(=O)c8cccc(-c9ccccn9)c8)CC7)c6nc-5c4c3C2=O)NC(=O)/C(C)=C\C=C\[C@H](C)[C@H](O)[C@@H](C)[C@@H](O)[C@@H](C)[C@H](OC(C)=O)[C@@H]1C [Compound 30g, (7S,9E,11S,12R,13S,14R,15R,16R,17S,18S,19E,21Z)-2,15,17-Trihydroxy-11-methoxy-3,7,12,14,16,18,22,30-octamethyl-6,23,37-trioxo-32-{4-[3-(pyridin-2-yl)benzoyl]piperazin-1-yl}-8,27,38-trioxa-24,34-diazahexacyclo[23.11.1.1^4,7.0^5,36.0^26,35.0^28,33]octatriaconta-1(36)2,4,9,19,21,25,28,30,32,34-undecaen-13-yl acetate] | 0.16 |  | 1.2 | 0.032 |  |
| CO[C@H]1/C=C/O[C@@]2(C)Oc3c(C)c(O)c4c(=O)c(c5oc6cccc(OCc7cccc(CN8CCN(C(=O)Cn9ccnc9)CC8)c7)c6nc-5c4c3C2=O)NC(=O)/C(C)=C\C=C\[C@H](C)[C@H](O)[C@@H](C)[C@@H](O)[C@@H](C)[C@H](OC(C)=O)[C@@H]1C [Compound 11e, (7S,9E,11S,12R,13S,14R,15R,16R,17S,18S,19E,21Z)-2,15,17-Trihydroxy-32-{[3-({4-[2-(1H-imidazol-1-yl)acetyl]piperazin-1-yl}methyl)phenyl]methoxy}-11-methoxy-3,7,12,14,16,18,22-heptamethyl-6,23,37-trioxo-8,27,38-trioxa-24,34-diazahexacyclo[23.11.1.1^4,7.0^5,36.0^26,35.0^28,33]octatriaconta-1(36)2,4,9,19,21,25,28,30,32,34-undecaen-13-yl acetate] | 0.26 | 0.078 | 1.6 |  |  |
| CO[C@H]1/C=C/O[C@@]2(C)Oc3c(C)c(O)c4c(=O)c(c5oc6cc(C=O)cc(N7CCN(CC(C)C)CC7)c6nc-5c4c3C2=O)NC(=O)/C(C)=C\C=C\[C@H](C)[C@H](O)[C@@H](C)[C@@H](O)[C@@H](C)[C@H](OC(C)=O)[C@@H]1C [Compound 30d, (7S,9E,11S,12R,13S,14R,15R,16R,17S,1S,19E,21Z)-30-Formyl-2,15,17-trihydroxy-11-methoxy-3,7,12,14,16,18,22-heptamethyl-32-[4-(2-methylpropyl)piperazin-1-yl]-6,23,37-trioxo-8,27,38-trioxa-24,34-diazahexacyclo[23.11.1.1^4,7.0^5,36.0^26,35.0^28,33]octatriaconta-1(36)2,4,9,19,21,25,28,30,32,34-undecaen-13-yl acetate] | 0.07 |  |  |  | 0.017 |

— patent US20250188092A1, “RIFAMYCIN ANALOGS” (THE REGENTS OF THE UNIVERSITY OF MICHIGAN, priority 2021, published 2025)
